Measured values as given in US5824657A, “Aminoacyl sulfamides for the treatment of hyperproliferative disorders” (priority 1997, dated 1998).

Assays:
[1] = test system: human epidermoid carcinoma cell line A-253 (ATCC HTB 41); experiment: MTT assay, human epidermoid carcinoma cell line; type: cell-based; settings: A253, MTT assay, exposure 72 hours, plot extended by eye for compounds active at lowest dose, read-out: IC50 Human Epidermoid Carcinoma Cells ATCC # HTB 41
Procedure: The MTT assay was used as a model to measure the inhibitory effects of the compounds of Formula I. The MTT assay is considered the most convenient modern assay for the determination of cell viability and cell proliferation. An MTT assay kit is commercially available (Chemicon International Inc., Temecula, Calif.). The MTT assay was performed according to manufacturer's instructions as outlined below.
A human epidermoid carcinoma cell line, designated as A-253 (ATCC HTB 41), was obtained in frozen vials from the American Type Culture Collection, Rockville, Md. Monolayer cultures were established from the vials by growth in RPMI 1640 medium supplemented with 10% fetal bovine serum (heat-inactivated), 2 mM L-glutamine, and pen-strep (100 units/ml; 100 μg/ml). The cultures were incubated at 37±1.5° C. in 5±1% CO2 in humidified air and were passaged weekly to avoid overgrowth. The laboratory cultures used for the present study were at passage seven after receipt of frozen stocks from ATCC.
Compounds of Formula I in powder form were stored at room temperature in plastic micro centrifuge tubes. Each tube was placed in a plastic bag containing desiccant. Each test compound was prepared as a 2 mg/ml solution in RPMI 1640 medium (non-supplemented) on the day of use, and the appropriate dilutions were prepared with the same vehicle.
Each compound was handled by sterile techniques in Class II, Type B biological safety cabinets.
The reference control compound was methotrexate at concentrations of 0.5 μg/ml to 50 μg/ml. A 1 mg/ml stock was prepared on the day of dosing and diluted to the appropriate concentrations using RPMI 1640 medium (non-supplemented).
A blank control was included in the MTT assay in order to determine the absorbance associated with the absence of any cells. This control was RPMI 1640 culture medium carried through the same procedures used to culture the cells in the microwell plates and to conduct the MTT assay color development. The microwell plate reader was zeroed against the blank control prior to recording the absorbance in the test wells.
Laboratory monolayer cultures of A-253 cells were trypsinized and seeded at a concentration of 24,000 cells in 0.05 ml of complete RPMI 1640 culture medium per well in 96-well plates. Eight wells in a column were seeded for each test condition. The blank control was prepared by adding 0.05 ml of culture medium (no cells) to 8 wells in the first column of each plate. A separate microwell plate was used for each compound of Formula I.
The test compound treatments were initiated immediately after seeding the cells by adding 0.05 ml of treatment medium to each microwell. Ten different test compound concentrations were prepared in culture medium (without serum), and each concentration was applied to a volume of eight wells on the appropriate plate. The final concentrations in the wells were 1000, 500, 250, 100, 50, 25, 10, 5, 2.5, and 1 μg/ml.
An untreated (zero-dose) condition was included as a column of 8 wells on each plate. The zero-dose and blank control wells received 0.05 ml of culture medium (without serum). The microwell plates were placed in an incubator at 37±1.5° C. in 5% CO2 in humidified air for an exposure period of 72±0.5 hours.
After the exposure period, 0.1 ml of MTT dye solution (0.5 mg/ml in serum free RPMI 1640 medium) was added to each micowell. The cultures were returned to the incubator for 2±0.1 hours. Then the medium was removed from each well and placed into a clean microwell plate for temporary storage. A volume of 0.1 ml of color development solution (Solution C, isopropanol with 0.04M HCl, Chemicon MTT Assay kit, Chemicon International Inc., Temecula, Calif.) was added to each new microwell. The contents were carefully mixed and allowed to sit at room temperature for approximately 1 hour. The medium that was saved from each microwell then was pipetted back into the well from which it originally came. […]

[2] = test system: aminoacyl-tRNA synthetases (aaRS) isolated from HeLa cells; experiment: IC50 determination, aaRS charging and trichloroacetic acid precipitation assay, aaRS partially purified from HeLa cell extracts; type: biochemical; settings: preincubation 20 minutes at 25° C., reaction 5-20 minutes
Procedure: IC50 determinations for the aminoacyl-tRNA synthetases (aaRS) isolated from HeLa cells were carried out using a modification of the aaRS charging and trichloroacetic acid precipitation assay described previously (see examples: D. Kern et. al., Biochemie, 61, 1257-1272 (1979) and J. Gilbart et. al. Antimicrobial Agents and Chemotherapy, 37(1), 32-38 (1993)). […] For practical purposes, the minimal acceptable value is approximately 2000 cpm per 10 minute reaction. The final dilution of the HeLa extract in the assays for the aaRS enzymes varies from 50 to 1200-fold.
Test compounds were typically present as serial dilutions in concentrations ranging from 0.35 nM to 35 μM. Test compound solutions were prepared by dissolving test compounds in 100% dimethyl sulfoxide and diluting to the final concentration with 50 mM HEPES, pH 7.5. IC50 determinations were typically performed in duplicate with each experiment containing 4-8 concentrations of test compound and with duplicate controls containing no inhibitor.
The reaction was incubated at 25° C. for 5-20 minutes. At specified time points a 15 microliter aliquot was removed and added to a well of a Millipore filtration plate (Multiscreen-FB, MAFB NOB 10) containing 100 microliters of cold 5% (wt/vol) trichloroacetic acid. Trichloroacitic acid precipitable material was collected by filtration on a Millipore Multiscreen filtration station, washed twice with cold 5% trichloroacetic acid, twice with water, and dried. Plates were typically allowed to air dry for several hours or baked at 50° C. in a vacuum oven for 30 minutes. The radioactivity on the dried plates was quantitated by the addition of Packard Microscint-20 to the wells and counting with a Packard TopCount scintillation counter.
Inhibitor activity typically was reported as a percentage of the control aaRS activity. […] The IC50 (in nM, Hela Cells) values of representative compounds of the present invention are listed in column 5 of Table I.

[3] = Acute toxicity in the mouse, intraperitoneal
Procedure: Six groups containing 5 CD-1 female mice (Charles River Lab, Mass.) weighing 19-23 g were used in the experiment. Water and Agway rodent chow were provided ad libitum throughout the study. The laboratory animals were handled according to the institutional animal husbandry Standard Operating Procedures.
The solution was filtered with 0.2 μm Nalgene syringe filter and then further diluted serially with normal saline by 5-fold (0.6 ml to 3.0 ml) to 0.016 mg/ml. Group 1 animals were injected intraperitoneally (i.p.) with 10 ml/kg normal saline as negative controls. Groups 2 to 6 were given Compound XIV i.p. at 100, 20, 4, 0.8 and 0.16 mg/kg, respectively.
The LD50 of the compound was calculated by the Method of Probits (See Probit Analysis, 3rd Edition, D. J. Finney, Cambridge University Press, Cambridge, 1971). All surviving animals were sacrificed after the last observation on seventh day post-treatment.

[4] = type: in vitro ADME, human
Procedure: Five formulations of Compound XIV were prepared for in vitro study. The formulations are represented in Table III
Franz static diffusion chambers were filled with a 4% BSA isotonic buffered saline and equilibrated to a temperature of 37° C. by a circulating water pump. Excised human cadaver skin (~0.2 mm thickness), which is either intact or tape-stripped, is placed onto each chamber.
The test formulations containing non-radioactive Compound XIV were spiked with tritiated Compound XIV. The specific radioactivity was about 0.05 μCi/mg test formulation. Spiked formulations were applied to the skin surface. The specific radioactivity in the stratum corneum, epidermis, dermis and the reservoir were measured at 1, 3, 6 and 24 h time points by liquid scintillation counting, to investigate cumulative penetration at each time point. The specific activity is expressed as a percentage relative to the total recovery from the reservoir, skin wipes, and the respective skin layers at the end of each experiment.
Each of the five formulations were tested on intact skin (5 replicates each) and tape-stripped skin (only in one diffusion cell) to investigate cumulative penetration at 0, 1, 3, 6, and 24 hours and tissue recovery was measured at 24 hours. […]

[5] = test system: normal human skin fibroblasts cell line ATCC CRL 1501; experiment: MTT assay, normal skin fibroblasts; type: cell-based; settings: Skin fibroblast, similar manner to HTB 41 assay
Procedure: The MTT assay was used as a model to measure the inhibitory effects of the compounds of Formula I. The MTT assay is considered the most convenient modern assay for the determination of cell viability and cell proliferation. […] The MTT assay was performed according to manufacturer's instructions as outlined below.
The cultures were returned to the incubator for 2±0.1 hours. Then the medium was removed from each well and placed into a clean microwell plate for temporary storage. A volume of 0.1 ml of color development solution (Solution C, isopropanol with 0.04M HCl, Chemicon MTT Assay kit, Chemicon International Inc., Temecula, Calif.) was added to each new microwell. […] The absorbance at 540 nm wavelength was determined in a microwell plate reader within two hours of the final preparation of the plates.
The absorbance at 540 nm was recorded for each well by the microwell plate reader after the instrument was zeroed against the blank controls for each plate. The mean absorbance for each test condition was calculated and compared to the mean absorbance for the zero-dose wells in order to obtain percent values. […]

bacterial growth = settings: Osada and Isono 1985; cited from earlier work

Compound | IC50 [1] [µM] | IC50 [2] [nM] | mortality ([3]; i.p. 100 mg/kg (group 2)) | 95% confidence limit of the LD50 ([3]; mouse, in vivo, ip) [mg/kg] | LD50 at 168 h ([3]; mouse, in vivo, ip) [mg/kg] | tolerability ([3]; mouse, in vivo, ip) | body weight loss after injection ([3]; mouse, in vivo, ip, 20 mg/kg) | symptoms after dosing ([3]; mouse, in vivo, ip, 20 mg/kg) | symptoms after dosing ([3]; mouse, in vivo, ip, 100 mg/kg) | penetration of target tissue, epidermis [4] | IC50 [5] [µM] | inhibition of bacterial growth (bacterial growth)
Nc1ncnc2c1ncn2[C@@H]1O[C@H](CNS(=O)(=O)NC(=O)[C@@H](N)Cc2ccccc2)[C@@H](O)[C@H]1O [Compound XIV, 5'-deoxy-adenosine 5'-N-(N-L-phenylalanyl)sulfamide] | 0.53 | 5 | Most of the group 2 mice died between 8 to 24 hours after injection | 24 to 63 | 44 | a high dose of Compound XIV was tolerated | about 10% | no unusual symptoms observed | showed loose hair starting at 3-4 hours after dosing and they also lost their appetite and became less active | penetrates the target tissue, epidermis, in significant concentration at 6 hours and levels are generally increased at 24 hours | 5.58 | 
C[C@H](N)C(=O)NS(=O)(=O)OC[C@H]1O[C@@H](n2cnc3c(N)nc(Cl)nc32)[C@H](O)[C@@H]1O [ascamycin] |  |  |  |  |  |  |  |  |  |  |  | ineffective inhibitor against bacterial growth
